# Data: ChEMBL document CHEMBL2146376, “'Inverted' analogs of the antibiotic gramicidin S with an improved biological profile” (Bioorg Med Chem, 2012)
# Square brackets hold non-standard residues; d marks the D form. Peptide text beside a SMILES is read from it. Gly(1-adamantyl) = N[C@H](C(=O)O)C12CC3CC(CC(C3)C1)C2; Orn = NCCC[C@H](N)C(=O)O
# Key:
# Staphylococcus aureus [1] = assay: Antibacterial activity against PVL-deficient and non-typable methicillin-resistant Staphylococcus aureus N133-T034 after 24 hrs by broth dilution method; assay type: functional; details: N133-T034, 24 h
# Staphylococcus aureus [2] = assay: Antibacterial activity against PVL-positive and non-typable methicillin-resistant Staphylococcus aureus USA300-1110301146 after 24 hrs by broth dilution method; assay type: functional; details: USA300-1110301146, 24 h
# Bacillus cereus = assay: Antibacterial activity against Bacillus cereus ATCC 11778 after 24 hrs by broth dilution method; assay type: functional; details: ATCC 11778, 24 h
# Staphylococcus aureus [3] = assay: Antibacterial activity against PVL-positive and non-typable methicillin-resistant Staphylococcus aureus 1110301981H-T034 after 24 hrs by broth dilution method; assay type: functional
# Enterococcus faecalis = assay: Antibacterial activity against Enterococcus faecalis ATCC 29212 after 24 hrs by broth dilution method; assay type: functional; details: ATCC 29212, 24 h
# [4] = tested on: Staphylococcus epidermidis; assay: Antibacterial activity against Staphylococcus epidermidis ATCC 12228 after 24 hrs by broth dilution method; assay type: functional; details: ATCC 12228, 24 h
# Escherichia coli = assay: Antibacterial activity against Escherichia coli ATCC 25922 after 24 hrs by broth dilution method; assay type: functional; details: ATCC 25922, 24 h
# [5] = Toxicity in human erythrocytes assessed as concentration required to achieve 100% hemolysis after 4 hrs; assay type: cell-based; details: erythrocyte
# Staphylococcus aureus [6] = assay: Antibacterial activity against Staphylococcus aureus ATCC 29213 after 24 hrs by broth dilution method; assay type: functional; details: ATCC 29213, 24 h
# Staphylococcus aureus [7] = assay: Antibacterial activity against PVL-deficient and non-typable methicillin-resistant Staphylococcus aureus N229-T034 after 24 hrs by broth dilution method; assay type: functional; details: N229-T034, 24 h
# Pseudomonas aeruginosa = assay: Antibacterial activity against Pseudomonas aeruginosa ATCC 27853 after 24 hrs by broth dilution method; assay type: functional; details: ATCC 27853, 24 h
SMILES,MIC (Staphylococcus aureus [1]) [µg/mL],MIC (Staphylococcus aureus [2]) [µg/mL],MIC (Bacillus cereus) [µg/mL],MIC (Staphylococcus aureus [3]) [µg/mL],MIC (Enterococcus faecalis) [µg/mL],MIC [4] [µg/mL],MIC (Escherichia coli) [µg/mL],Activity [5] [µM],MIC (Staphylococcus aureus [6]) [µg/mL],MIC (Staphylococcus aureus [7]) [µg/mL],MIC (Pseudomonas aeruginosa) [µg/mL]
CC(C)[C@@H]1NC(=O)[C@H](CCCN)NC(=O)[C@@H]2CCCN2C(=O)[C@@H](Cc2ccccc2)NC(=O)[C@H](CCCN)NC(=O)[C@H](C(C)(C)C)NC(=O)[C@H](CCCN)NC(=O)[C@@H]2CCCN2C(=O)[C@@H](Cc2ccccc2)NC(=O)[C@H](CCCN)NC1=O,> 64,> 64,> 64,> 64,> 64,64,> 64,> 500,> 64,> 64,> 64
CC(C)C[C@@H]1NC(=O)[C@H](CCCN)NC(=O)[C@@H]2CCCN2C(=O)[C@@H](Cc2ccccc2)NC(=O)[C@H](CCCN)NC(=O)[C@H](CC(C)(C)C)NC(=O)[C@H](CCCN)NC(=O)[C@@H]2CCCN2C(=O)[C@@H](Cc2ccccc2)NC(=O)[C@H](CCCN)NC1=O,> 64,> 64,> 64,> 64,> 64,16,> 64,> 500,> 64,> 64,> 64
NCCC[C@@H]1NC(=O)[C@H](CC23CC4CC(CC(C4)C2)C3)NC(=O)[C@H](CCCN)NC(=O)[C@@H]2CCCN2C(=O)[C@@H](Cc2ccccc2)NC(=O)[C@H](CCCN)NC(=O)[C@H](CC23CC4CC(CC(C4)C2)C3)NC(=O)[C@H](CCCN)NC(=O)[C@@H]2CCCN2C(=O)[C@@H](Cc2ccccc2)NC1=O,8,8,8,8,8,4,8,62.5,8,8,16
CC(C)[C@@H]1NC(=O)[C@H](CCCN)NC(=O)[C@@H]2CCCN2C(=O)[C@@H](Cc2ccccc2)NC(=O)[C@H](CCCN)NC(=O)[C@H](C23CC4CC(CC(C4)C2)C3)NC(=O)[C@H](CCCN)NC(=O)[C@@H]2CCCN2C(=O)[C@@H](Cc2ccccc2)NC(=O)[C@H](CCCN)NC1=O,> 64,> 64,64,> 64,> 64,16,> 64,> 500,64,> 64,64
CC(C)[C@@H]1NC(=O)[C@H](CCCN)NC(=O)[C@@H]2CCCN2C(=O)[C@@H](Cc2ccccc2)NC(=O)[C@H](CCCN)NC(=O)[C@H](C(C)C)NC(=O)[C@H](CCCN)NC(=O)[C@@H]2CCCN2C(=O)[C@@H](Cc2ccccc2)NC(=O)[C@H](CCCN)NC1=O,> 64,> 64,> 64,> 64,> 64,64,> 64,> 500,> 64,> 64,> 64
CCCCCCCCCC[C@@H]1NC(=O)[C@H](CCCN)NC(=O)[C@@H]2CCCN2C(=O)[C@@H](Cc2ccccc2)NC(=O)[C@H](CCCN)NC(=O)[C@H](CCCCCCCCCC)NC(=O)[C@H](CCCN)NC(=O)[C@@H]2CCCN2C(=O)[C@@H](Cc2ccccc2)NC(=O)[C@H](CCCN)NC1=O,64,64,8,64,32,4,64,62.5,64,64,64
CC(C)C[C@@H]1NC(=O)[C@H](CCCN)NC(=O)[C@@H]2CCCN2C(=O)[C@@H](Cc2ccccc2)NC(=O)[C@H](CCCN)NC(=O)[C@H](CC(C)C)NC(=O)[C@H](CCCN)NC(=O)[C@@H]2CCCN2C(=O)[C@@H](Cc2ccccc2)NC(=O)[C@H](CCCN)NC1=O,,,> 64,,> 64,64,> 64,> 500,> 64,,> 64
CC(C)(C)[C@@H]1NC(=O)[C@H](CCCN)NC(=O)[C@@H]2CCCN2C(=O)[C@@H](Cc2ccccc2)NC(=O)[C@H](CCCN)NC(=O)[C@H](C(C)(C)C)NC(=O)[C@H](CCCN)NC(=O)[C@@H]2CCCN2C(=O)[C@@H](Cc2ccccc2)NC(=O)[C@H](CCCN)NC1=O,> 64,> 64,> 64,> 64,> 64,64,> 64,> 500,> 64,> 64,> 64
NCCC[C@@H]1NC(=O)[C@H](C23CC4CC(CC(C4)C2)C3)NC(=O)[C@H](CCCN)NC(=O)[C@@H]2CCCN2C(=O)[C@@H](Cc2ccccc2)NC(=O)[C@H](CCCN)NC(=O)[C@H](C23CC4CC(CC(C4)C2)C3)NC(=O)[C@H](CCCN)NC(=O)[C@@H]2CCCN2C(=O)[C@@H](Cc2ccccc2)NC1=O (cyclo([Orn][dF]P[Orn][Gly(1-adamantyl)][Orn][dF]P[Orn][Gly(1-adamantyl)])),8,8,8,8,8,4,8,500,8,8,16
CC(C)(C)[C@@H]1NC(=O)[C@H](CCCN)NC(=O)[C@@H]2CCCN2C(=O)[C@@H](Cc2ccccc2)NC(=O)[C@H](CCCN)NC(=O)[C@H](C23CC4CC(CC(C4)C2)C3)NC(=O)[C@H](CCCN)NC(=O)[C@@H]2CCCN2C(=O)[C@@H](Cc2ccccc2)NC(=O)[C@H](CCCN)NC1=O,64,64,32,64,> 64,4,32,> 500,64,64,32
CC(C)C[C@@H]1NC(=O)[C@H](CCCN)NC(=O)[C@H](C(C)C)NC(=O)[C@@H]2CCCN2C(=O)[C@@H](Cc2ccccc2)NC(=O)[C@H](CC(C)C)NC(=O)[C@H](CCCN)NC(=O)[C@H](C(C)C)NC(=O)[C@@H]2CCCN2C(=O)[C@@H](Cc2ccccc2)NC1=O [GRAMICIDIN S] (cyclo(L[dF]PV[Orn]L[dF]PV[Orn])),8,8,8,8,16,8,32,31.3,8,8,64
CC(C)(C)C[C@@H]1NC(=O)[C@H](CCCN)NC(=O)[C@@H]2CCCN2C(=O)[C@@H](Cc2ccccc2)NC(=O)[C@H](CCCN)NC(=O)[C@H](CC(C)(C)C)NC(=O)[C@H](CCCN)NC(=O)[C@@H]2CCCN2C(=O)[C@@H](Cc2ccccc2)NC(=O)[C@H](CCCN)NC1=O,> 64,> 64,> 64,> 64,> 64,16,> 64,> 500,> 64,> 64,64
CC(C)(C)C[C@@H]1NC(=O)[C@H](CCCN)NC(=O)[C@@H]2CCCN2C(=O)[C@@H](Cc2ccccc2)NC(=O)[C@H](CCCN)NC(=O)[C@H](CC23CC4CC(CC(C4)C2)C3)NC(=O)[C@H](CCCN)NC(=O)[C@@H]2CCCN2C(=O)[C@@H](Cc2ccccc2)NC(=O)[C@H](CCCN)NC1=O,16,16,4,16,32,4,16,500,16,16,16
CC(C)C[C@@H]1NC(=O)[C@H](CCCN)NC(=O)[C@@H]2CCCN2C(=O)[C@@H](Cc2ccccc2)NC(=O)[C@H](CCCN)NC(=O)[C@H](CC23CC4CC(CC(C4)C2)C3)NC(=O)[C@H](CCCN)NC(=O)[C@@H]2CCCN2C(=O)[C@@H](Cc2ccccc2)NC(=O)[C@H](CCCN)NC1=O,32,32,16,64,64,4,64,> 500,64,32,16
CCCCCCCCCC[C@@H]1NC(=O)[C@H](CCCN)NC(=O)[C@@H]2CCCN2C(=O)[C@@H](Cc2ccccc2)NC(=O)[C@H](CCCN)NC(=O)[C@H](C(C)C)NC(=O)[C@H](CCCN)NC(=O)[C@@H]2CCCN2C(=O)[C@@H](Cc2ccccc2)NC(=O)[C@H](CCCN)NC1=O,8,8,4,16,16,8,16,500,16,8,16
